From PubChem BioAssay (NCI)
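Each compound was tested at five concentrations against cells in 96-well plates for 48 hours. Definition used: TGI = concentration required for complete inhibition of growth.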

Legend:
Assay in all cases: DTP human tumour cell line panel, 48 h
SK-MEL-5 melanoma = system: SK-MEL-5 melanoma
SF-295 CNS = system: SF-295 CNS
COLO 205 colon = system: COLO 205 colon
HCT-15 colon = system: HCT-15 colon
OVCAR-5 ovarian = system: OVCAR-5 ovarian
KM12 colon = system: KM12 colon
HCT-116 colon = system: HCT-116 colon
SNB-19 CNS = system: SNB-19 CNS
RPMI-8226 leukemia = system: RPMI-8226 leukemia
MCF7 breast = system: MCF7 breast
MOLT-4 leukemia = system: MOLT-4 leukemia
UACC-257 melanoma = system: UACC-257 melanoma
MDA-N = system: MDA-N
PC-3 prostate = system: PC-3 prostate
SK-MEL-2 melanoma = system: SK-MEL-2 melanoma
OVCAR-8 ovarian = system: OVCAR-8 ovarian
UO-31 renal = system: UO-31 renal
A549 NSCLC = system: A549 NSCLC
OVCAR-3 ovarian = system: OVCAR-3 ovarian
BT-549 breast = system: BT-549 breast
HOP-62 NSCLC = system: HOP-62 NSCLC
UACC-62 melanoma = system: UACC-62 melanoma
CAKI-1 renal = system: CAKI-1 renal
NCI-H23 lung = system: NCI-H23 lung
DU-145 prostate = system: DU-145 prostate
ACHN renal = system: ACHN renal
K-562 leukemia = system: K-562 leukemia
786-0 renal = system: 786-0 renal
OVCAR-4 ovarian = system: OVCAR-4 ovarian
SW-620 colon = system: SW-620 colon
HOP-92 NSCLC = system: HOP-92 NSCLC
SNB-75 CNS = system: SNB-75 CNS
MDA-MB-231 breast = system: MDA-MB-231 breast
CCRF-CEM leukemia = system: CCRF-CEM leukemia
HCC-2998 colon = system: HCC-2998 colon
SN12C renal = system: SN12C renal
U251 CNS = system: U251 CNS
M14 melanoma = system: M14 melanoma
HL-60(TB) leukemia = system: HL-60(TB) leukemia
SK-MEL-28 melanoma = system: SK-MEL-28 melanoma
EKVX NSCLC = system: EKVX NSCLC
A498 renal = system: A498 renal
NCI-H522 lung = system: NCI-H522 lung
MDA-MB-435 = system: MDA-MB-435
HT29 colon = system: HT29 colon
SK-OV-3 ovarian = system: SK-OV-3 ovarian
NCI/ADR-RES ovarian = system: NCI/ADR-RES ovarian
LOX IMVI melanoma = system: LOX IMVI melanoma
MALME-3M melanoma = system: MALME-3M melanoma
NCI-H226 lung = system: NCI-H226 lung
TK-10 renal = system: TK-10 renal
RXF 393 renal = system: RXF 393 renal
IGROV1 ovarian = system: IGROV1 ovarian
T-47D breast = system: T-47D breast

Measured: TGI

Cc1ccc(Cl)c2c(=O)c3ccc([N+](=O)[O-])cc3sc12
> 100 µM: SK-MEL-5 melanoma | SF-295 CNS | COLO 205 colon | HCT-15 colon | OVCAR-5 ovarian | KM12 colon | HCT-116 colon | SNB-19 CNS | RPMI-8226 leukemia | MCF7 breast | MOLT-4 leukemia | UACC-257 melanoma | MDA-N | PC-3 prostate | SK-MEL-2 melanoma | OVCAR-8 ovarian | UO-31 renal | A549 NSCLC | OVCAR-3 ovarian | BT-549 breast | HOP-62 NSCLC | UACC-62 melanoma | CAKI-1 renal | NCI-H23 lung | DU-145 prostate | ACHN renal | K-562 leukemia | 786-0 renal

CC(=O)OC1CCN(C(=O)c2ccccc2)CC1CC1(c2cc3ccccc3[nH]2)OCCO1 (stereo unspecified)
53.6 µM: HL-60(TB) leukemia
96.2 µM: A498 renal
75 µM: MOLT-4 leukemia
70.4 µM: RPMI-8226 leukemia
not listed: BT-549 breast
> 100 µM: all other assays above
